Laboratory results reported in US20230190777A1, “MAMMALIAN MILK OLIGOSACCHARIDES PREVENT VIRAL INFECTION OF HUMAN EPITHELIUM” (The Regents of the University of California, priority 2020, published 2023).
Read-outs that look alike come from different tables or passages of the source.

Tests used:
[1] = system: human coronavirus (HCoV-229E); assay: HCoV-229E infection of A549 cells after HMO pre-incubation (imaging of adherent cells); assay type: cell-based; details: HMO 2 mg/ml pre-incubated 16 hours, MOI 0.01, up to three days post-infection (FIG. 2)
Description: Monkey kidney epithelial (MK2-LLC) cells or human alveolar epithelial (A549) cells were seeded in 12-well plates at 1E5 cells per well.
24-hours post incubation, cells were washed with serum-free media and incubated with the particular HMO at 2 mg/ml final concentration.
16-hours post HMO incubation, the particular virus (for MK2-LLC cells this was Tulane virus, at a multiplicity of infection (MOI) of 0.001; for A549 cells this was human coronavirus (HCoV-229E), at an MOI of 0.01) was added and infection was allowed to proceed.
Images of adherent (live) cells were recorded two-days post infection after aspirating and washing cells with PBS. All wells were washed on Day 3 prior to imaging.
It was hypothesized that HMOs enhance cellular adhesion, cell structural integrity and modulate tight junction proteins as a generalized function regardless of the organ from which the epithelial cells are derived, and this function in turn alters the response to pathogenic challenges. […] As proof-of-concept, human alveolar epithelial (A549) cells were incubated in the presence of physiological levels of an HMO (2′-FL or 3′-SL) for 16 hours and infected the cells with a human coronavirus (HCoV-229E).

[2] = system: Type I (IFN-α1, IFN-β1) and Type III interferons (IFN-λ1, IFN-λ2, and IFN-λ3); assay: Host-cell interferon response during HCoV-229E infection of A549 cells (real-time PCR); assay type: cell-based, human; details: HMO 2 mg/ml pre-incubated 16 hours, MOI 0.01, 24 hours post infection (FIG. 6)
[3] = system: human coronavirus (HCoV-229E); assay type: cell-based; details: HMO 2 mg/ml or 5 mg/ml for 16 hours before HCoV-229E (MOI 0.01), 48 hours of viral infection (FIG. 4)
[4] = system: human coronavirus (HCoV-229E); assay type: cell-based; details: A549 cells, MOI 0.01, three days post infection (FIG. 3)
Tulane virus = Tulane virus infection of MK2-LLC cells after HMO pre-incubation (imaging of adherent cells); assay type: cell-based, monkey; details: HMO 2 mg/ml pre-incubated 16 hours, MOI 0.001, compared to cells in the absence of an HMO (FIG. 1)
[5] = HMO 2 mg/ml added simultaneously with HCoV-229E ('During')
[6] = HMO 2 mg/ml added two hours post viral adsorption ('After')

| Molecule | A549 epithelial cell morphology after HCoV-229E infection [1] | Type I and Type III interferon response (fold-induction) during HCoV-229E infection [2] | A549 cell viability (live cell fluorescence, Calcein-AM) [3] | loss of adherent cells, virus-mediated loss of cell viability and cytopathogenic effects [4, 5] | loss of adherent cells, virus-mediated loss of cell viability and cytopathogenic effects [4, 6] | cellular adherence and cell viability in the presence of Tulane virus (Tulane virus) |
| --- | --- | --- | --- | --- | --- | --- |
| CC(=O)N[C@H]1[C@H]([C@H](O)[C@H](O)CO)O[C@@](O[C@H]2[C@@H](O)[C@@H](CO)O[C@@H](O[C@H]3[C@H](O)[C@@H](O)C(O)O[C@@H]3CO)[C@@H]2O)(C(=O)O)C[C@@H]1O (stereo partly shown) [3′-SL, 3′-sialyllactose] | little or no change in A549 epithelial cell morphology | dramatically attenuated | retain viability | reduced the loss of adherent cells, the virus-mediated loss of cell viability and the cytopathogenic effects | reduced the loss of adherent cells, the virus-mediated loss of cell viability and the cytopathogenic effects | increased cellular adherence and cell viability |
| 2′-Fucosyllactose [2′-FL] | little or no change in A549 epithelial cell morphology | dramatically attenuated | retain viability | reduced the loss of adherent cells, the virus-mediated loss of cell viability and the cytopathogenic effects | reduced the loss of adherent cells, the virus-mediated loss of cell viability and the cytopathogenic effects | increased cellular adherence and cell viability |
| Lacto-N-fucopentaose I [LNFP I] |  |  |  |  |  | increased cellular adherence and cell viability |
